From EPA's ToxValDB 9.5 (doi:10.2903/j.efsa.2011.2159) come the findings set out here.

In data set [1] the test system is Tagia sp.
The subject of data set [2] is Bibionidae. To be noted: chronic/long-term; duration: 28 days.
Data set [3] deals with Aphidius rhopalosiphi. The note with it: not reported; mortality.
Data set [4] relates to Colinus virginianus. The note with it: mortality; for LD50: acute, oral.
Data set [5] has as its system Apis mellifera. To be noted: acute; duration: 48 hours; oral; unspecified; mortality.
In data set [6] the test system is Canidae. To be noted: chronic; duration: 1 years; oral; Dog Other; clinical signs.
The subject of data set [7] is Daphnia magna. The note with it: chronic/long-term; duration: 21 days; reproduction.
For data set [8], the system named is Anas platyrhynchos. The note with it: mortality.
Data set [9] relates to Oncorhynchus mykiss.
Data set [10] has as its system Mus musculus. The note with it: acute; oral; mortality.
Data set [11] relates to Rattus norvegicus.

≈ marks a conversion by molar mass, not a printed value.

A word on the NOAEL: it is the highest dose or exposure tested at which no adverse effect was seen. As for `Cc1c(COC(=O)[C@@H]2[C@H](/C=C(\Cl)C(F)(F)F)C2(C)C)cccc1-c1ccccc1` [Bifenthrin], the LC50 in data set [1] (acute, duration: 14 days, mortality) was more than 16 mg/kg; in [9] (acute, duration: 96 hours, mortality) it was 0.1 ng/mL (≈ 0.236 nM). Also, the NOEC was found to be 2.16 mg/kg in [1] (chronic/long-term, duration: 56 days, reproduction); 0.00032 mg/L in data set [2]; 75 mg/kg-day in data set [4] (reproduction developmental); 9.5e-07 mg/L in [7]; 75 mg/kg in data set [8] (reproductive); 312 mg/kg in data set [8] (short-term, oral, feed). In data set [9] (chronic/long-term, duration: 30 days, other), the NOEC was 1.2e-05 mg/L. For the same compound, in data set [3], the LEL is 60 g/ha. Moreover, the LD50 in data set [4] (diet) is 569 mg/kg-day; in data set [4], 1800 mg/kg; in data set [5], 0.1 µg/piece; in [8] (acute, oral, unspecified), more than 2150 mg/kg; in data set [10], 42.5 mg/kg. Further, the no-observed-adverse-effect level (NOAEL) in data set [6] is 1.5 mg/kg-day; in data set [11] (developmental, development) it was more than 2 mg/kg-day; in data set [11] (reproduction developmental, reproduction), 3 mg/kg-day; in data set [11] (subchronic, duration: 90 days, oral, neurology), 2.9 mg/kg-day.
